# According to patent publication US20050119240A1, “1-methyl-20-epi-vitamin d derivative” (priority 2000, published 2005):
# Target: T1, Bovine thymus 1α,25-dihydroxyvitamin D3 receptor (VDR) (Bos taurus, UniProt Q28037)
# T1 sequence (Q28037 1-426): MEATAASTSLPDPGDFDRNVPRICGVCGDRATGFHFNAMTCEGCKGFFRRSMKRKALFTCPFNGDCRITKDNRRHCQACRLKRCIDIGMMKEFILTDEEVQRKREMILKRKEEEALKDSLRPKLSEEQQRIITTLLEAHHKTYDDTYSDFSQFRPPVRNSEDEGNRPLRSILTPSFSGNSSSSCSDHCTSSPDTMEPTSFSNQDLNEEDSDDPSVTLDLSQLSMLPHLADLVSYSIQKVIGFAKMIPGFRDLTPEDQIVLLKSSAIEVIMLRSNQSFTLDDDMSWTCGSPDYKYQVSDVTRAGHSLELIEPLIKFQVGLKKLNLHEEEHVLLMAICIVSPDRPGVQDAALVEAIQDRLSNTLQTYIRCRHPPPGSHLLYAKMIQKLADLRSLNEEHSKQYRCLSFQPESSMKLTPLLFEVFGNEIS
# Details: relative value with that of 1α,25-dihydroxyvitamin D3 taken as 100; [3H]-1α,25-dihydroxyvitamin D3 0.1 nM, incubation overnight at 4° C.
row,VDR binding properties,SMILES
1,1,"C=C1/C(=C\C=C2/CCC[C@]3(C)[C@@H]([C@@H](C)CCCC(C)(C)O)CC[C@@H]23)C[C@H](O)C[C@]1(C)O [Compound 4, (5Z,7E)-(1S,3S,20S)-1Methyl-9,10-seco-5,7,10(19)-cholestatriene-1,3,25-triol]"
2,1,"C=C1/C(=C\C=C2/CCC[C@@]3(C)C2CCC3[C@@H](C)CCCC(C)(C)O)C[C@@H](O)C[C@]1(C)O (stereo partly drawn) [Compound 6, (5Z,7E)-(1S,3R,20S)-1-Methyl-9,10-seco-5,7,10(19)-cholestatriene-1,3,25-triol]"
3,0.017,"C=C1C(=CC=C2CCCC3(C)C2CCC3C(C)CCCC(C)(C)O)CC(O)CC1(C)O [Compound 9, (5Z,7E)-(1R,3R,20S)-1-Methyl-9,10-seco-5,7,10(19)-cholestatriene-1,3,25-triol]"
4,0.004,"C=C1/C(=C\C=C2/CCC[C@@]3(C)C2CCC3[C@@H](C)CCCC(C)(C)O)C[C@H](O)C[C@@]1(C)O (stereo partly drawn) [Compound 11, (5Z,7E)-(1R,3S,20S)-1-Methyl-9,10-seco-5,7,10(19)-cholestatriene-1,3,25-triol]"
